Assay results from PubChem BioAssay (NCI).
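Five compound concentrations were applied to cells in 96-well plates for 48 hours; endpoints were derived by simple linear interpolation of the resulting dose-response curve. GI50 = concentration required for 50% inhibition of growth. TGI: total growth inhibition.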

Columns and labels:
Assay in all cases: NCI tumour cell line growth inhibition, 48 h
A498 renal = test system: A498 renal
SF-539 CNS = test system: SF-539 CNS
HOP-92 NSCLC = test system: HOP-92 NSCLC
786-0 renal = test system: 786-0 renal
KM12 colon = test system: KM12 colon
U251 CNS = test system: U251 CNS
SNB-19 CNS = test system: SNB-19 CNS
TK-10 renal = test system: TK-10 renal

Compound | GI50 (A498 renal) | TGI (A498 renal) | GI50 (SF-539 CNS) | TGI (SF-539 CNS) | GI50 (HOP-92 NSCLC) | TGI (HOP-92 NSCLC) | GI50 (786-0 renal) | TGI (786-0 renal) | TGI (KM12 colon) | TGI (U251 CNS) | TGI (SNB-19 CNS) | TGI (TK-10 renal) | GI50 (KM12 colon) | GI50 (U251 CNS) | GI50 (SNB-19 CNS) | GI50 (TK-10 renal)
C1C[S][Ge]2([S]CCO1)[S]CCOCC[S]2 | > 100 µM | > 100 µM | > 100 µM | > 100 µM | > 100 µM | > 100 µM | > 100 µM | > 100 µM | – | – | – | – | – | – | – | –
COc1ccc(C(=O)C(C(=O)C(=O)Nc2ccc(Cl)c(Cl)c2)c2ccc(OC)cc2)cc1 (centres undefined) | – | > 100 µM | – | > 100 µM | – | > 100 µM | – | > 100 µM | > 100 µM | > 100 µM | > 100 µM | > 100 µM | – | – | – | –
CC(C)(C)CC(C)(C)c1cc2c(O)c(c1)Cc1cc(C(C)(C)CC(C)(C)C)cc(c1O)Cc1cc(C(C)(C)CC(C)(C)C)cc(c1O)Cc1cc(C(C)(C)CC(C)(C)C)cc(c1O)Cc1cc(C(C)(C)CC(C)(C)C)cc(c1O)Cc1cc(C(C)(C)CC(C)(C)C)cc(c1O)C2 | – | – | – | > 100 µM | – | > 100 µM | – | > 100 µM | > 100 µM | > 100 µM | > 100 µM | > 100 µM | – | – | – | –
O=c1cccccc1NCCCCCCNc1cccccc1=O | – | > 100 µM | – | – | – | – | – | > 100 µM | > 100 µM | > 100 µM | > 100 µM | > 100 µM | – | – | – | –
O=C1N(c2ccccc2)C(=O)C2(SC=NN2Cc2ccccc2)N1c1ccccc1 (centres undefined) | – | > 100 µM | – | > 100 µM | – | > 100 µM | – | > 100 µM | > 100 µM | > 100 µM | > 100 µM | > 100 µM | – | – | – | –
CCOC(=O)C1=C(O)CSC1=Nc1ccccc1 | – | – | – | > 100 µM | – | > 100 µM | – | > 100 µM | > 100 µM | – | > 100 µM | > 100 µM | – | – | – | –
CC/C(=C(/CC)c1ccc([O-])cc1)c1ccc([O-])cc1.CC/C(=C(\CC)c1ccc([O-])cc1)c1ccc([O-])cc1.O=C([CH-]C(=O)c1ccccc1)c1ccccc1.O=C([CH-]C(=O)c1ccccc1)c1ccccc1.O=C([CH-]C(=O)c1ccccc1)c1ccccc1.O=C([CH-]C(=O)c1ccccc1)c1ccccc1.[Ti+4].[Ti+4] | – | – | 20 µM | 40.8 µM | 19.5 µM | 50 µM | 16.9 µM | 32.4 µM | > 100 µM | 82 µM | 56.2 µM | > 100 µM | 26.3 µM | 24.9 µM | 22.6 µM | 45.2 µM
O=C1OCCC1C(O)C1c2ccccc2-c2ccccc21 (centres undefined) | – | > 100 µM | – | – | – | > 100 µM | – | > 100 µM | > 100 µM | > 100 µM | > 100 µM | > 100 µM | – | – | – | –
CC1(C)CCc2cc3c(cc2O1)OCC1c2cc4c(cc2OC31)OCO4 (centres undefined) | – | > 100 µM | – | > 100 µM | – | > 100 µM | – | > 100 µM | > 100 µM | > 100 µM | > 100 µM | > 100 µM | – | – | – | –
O=C(c1cc2ccccc2o1)N(Cc1ccccc1)c1ccccc1 | – | 89.1 µM | – | – | – | 44 µM | – | 46.7 µM | 46.6 µM | – | > 100 µM | > 100 µM | – | – | – | –
CC(=O)c1cccc(NC(=O)C(=O)C(C2OC(=O)c3ccccc32)[N+](=O)[O-])c1 (centres undefined) | – | > 100 µM | – | > 100 µM | – | > 100 µM | – | > 100 µM | > 100 µM | > 100 µM | > 100 µM | > 100 µM | – | – | – | –
Cc1c(C(=O)C/C(=N/NC(=O)C[n+]2ccccc2)C(=O)Nc2ccccc2)[n+](=O)c2ccccc2n1O | – | > 100 µM | – | > 100 µM | – | – | – | > 100 µM | > 100 µM | > 100 µM | > 100 µM | > 100 µM | – | – | – | –
COc1c(NC(C)=O)cc(C)cc1NC(C)=O | – | > 100 µM | – | > 100 µM | – | > 100 µM | – | > 100 µM | > 100 µM | > 100 µM | – | > 100 µM | – | – | – | –
CC(=O)O[C@]1(C)OC(=O)[C@@H](C)N1[N+](=O)[O-] | – | > 100 µM | – | > 100 µM | – | – | – | > 100 µM | > 100 µM | > 100 µM | > 100 µM | > 100 µM | – | – | – | –
COc1ccc2c(c1)[n+]([O-])c(-c1ccccc1)c(N)[n+]2[O-] | – | > 100 µM | – | > 100 µM | – | – | – | > 100 µM | > 100 µM | > 100 µM | > 100 µM | > 100 µM | – | – | – | –
COC(=O)C1=C(C(=O)OC)C23CC1C1C(C(=O)OC)=C(C(=O)OC)C12C1C=CC3C2C(=O)OC(=O)C21 (centres undefined) | – | – | – | > 100 µM | – | > 100 µM | – | > 100 µM | > 100 µM | > 100 µM | > 100 µM | > 100 µM | – | – | – | –
O=C1c2ccccc2C(=O)c2c(NCCNCCO)ccc(O)c21 | – | 19.4 µM | – | 12.1 µM | – | 13.4 µM | – | 15.9 µM | 8.1 µM | 14.7 µM | 14.2 µM | 15.3 µM | – | – | – | –
CN[C@@H](C)[C@@H](N)c1ccccc1 | – | > 100 µM | – | > 100 µM | – | > 100 µM | – | > 100 µM | – | > 100 µM | > 100 µM | > 100 µM | – | – | – | –
C[C@]12CCc3nonc3C1CC[C@@H]1C2CC[C@]2(C)NC(=O)CCC12 (some centres undefined) | – | > 100 µM | – | > 100 µM | – | > 100 µM | – | > 100 µM | > 100 µM | > 100 µM | > 100 µM | > 100 µM | – | – | – | –
